US20070112068A1, “Nitrile compound and its use in pest control” (priority 2003, published 2007)

Legend:
Type in all cases: in vivo
[1] = system: Culex pipiens pallens; test: Experimental Example 25: electric mosquito mat, Culex pipiens pallens; settings: electric mosquito mat (Formulation Example 18); 20 minutes exposure, after 24 hours
Procedure: An electric mosquito mat of the present compound (31) prepared according to Formulation Example 18 is set on a heater for an electric mosquito mat and then placed on the centre of the floor of a chamber having 70 cm (width)×70 cm (depth)×70 cm (height). After the electric mosquito mat is initiated to be heated with the heater, about 20 female imagoes of Culex pipiens pallens are released in the chamber. After 20 minutes, all test pests are collected, placed in a plastic cup together with absorbent cotton impregnated with 5% sugar water, and left at 25° C.

[2] = system: Blattella germanica; test: Experimental Example 13: direct oil spray in CSMA chamber, Blattella germanica; settings: 1.5 ml of 0.025% (w/v) oil sprayed directly; after 3 days
Procedure: 7.5 mg of the present compound (31) was dissolved in 30 mL of a mixture of 90 parts by weight of Isopar M (isoparaffin, the registered trade name of Exxon Chemical) and 10 parts by weight of dichloromethane to prepare a 0.025% (w/v) oil. A plastic container (diameter: 9.5 cm, height: 4 cm, bottom part of 16 mesh wire) containing 10 imagoes (5 males and 5 females) of Blattella germanica was placed on the bottom of a CSMA chamber (width: 46 cm, depth: 46 cm, height: 70 cm).
1.5 ml of the oil was directly sprayed on test cockroaches from the upper side of the CSMA chamber. After 30 seconds from spraying, the container containing cockroaches was removed. All cockroaches were transferred to another clean plastic container (200 mL) and left together with feed and water at 25° C. After 3 days, the number of surviving Blattella germanica was examined and the death rate of the pest was calculated.

[3] = system: Blattella germanica; test: Experimental Example 22: treated filter paper suspended in chamber, Blattella germanica; settings: 10 mL of 10% (w/v) acetone solution on filter paper; 70 cm cube chamber; after 72 hours
Procedure: A 10% (w/v) solution of the present compound (31) in acetone is prepared. 10 mL of the solution is uniformly added dropwise to a filter paper with 10 cm×25 cm and then air-dried. The filter paper is suspended from the center of the ceiling of a chamber with 70 cm (width)×70 cm (depth)×70 cm (height). After 20 imagoes (10 males and 10 females) of Blattella germanica are released, the door of the chamber is closed. Feed and water are placed in the glass chamber.

[4] = system: Periplaneta americana; test: Experimental Example 17: treated filter paper in paper box, Periplaneta americana; settings: 0.1 ml of 5% (w/v) acetone solution on filter paper in paper box; after 7 days
Procedure: A 5% (w/v) solution of the present compound (31) in acetone was prepared. 0.1 ml of the solution was added dropwise onto a filter paper with 2 cm×2 cm and then air-dried. This filter paper was attached to the center of the inside bottom of a paper box having 10 cm (width)×2 cm (height)×7 cm (depth) with a two-sided tape. One hole of 2 mm in width and 2 cm in height was made through one side of this box. This box was placed in a plastic vat with 25 cm×20 cm×8 cm in height and therein 3 females and 3 males of Periplaneta americana were released. The inside wall of the plastic vat used in this experiment was coated with talc for preventing the escape of cockroaches. The plastic vat contained feed and water and left at 25° C. After 7 days, Periplaneta americana was observed and the death rate of the pest was calculated. This experiment was repeated two times.

[5] = system: Culex pipiens pallens; test: Experimental Example 10: treated filter paper in Peet-Grady chamber, Culex pipiens pallens; settings: 5 ml of 1% (w/v) acetone solution on filter paper; 1.8 m Peet-Grady chamber; female imagoes; 1 hour exposure, 24 hours later
Procedure: A 1% (w/v) solution of the present compound (31) in acetone was prepared. Onto a filter paper with 10 cm×25 cm, 5 ml of the solution was added dropwise uniformly and then air-dried. This filter paper was suspended from the center of the ceiling center of a Peet-Grady chamber with 1.8 m (width)×1.8 m (depth)×1.8 m (height) and therein about 50 female imagoes of Culex pipiens pallens were released. After 1 hour, all test pests were collected, put into a plastic cup together with absorbent cotton impregnated with 5% sugar water, and then left at 25° C. After 24 hours, the number of surviving Culex pipiens pallens was examined and the death rate was calculated.

## N#CC(C#N)(CCC(F)(F)F)CC(F)(F)C(F)(F)C(F)(F)C(F)F [(31)]
[1]
  pesticidal effect: pesticidal effect on Culex pipiens pallens is confirmed
[2]
  death rate of the pest: 100%
[3]
  pesticidal effect: pesticidal effect on Blattella germanica is confirmed
[4]
  death rate of the pest: 100%
[5]
  death rate of the pest: 86%
